Measured values as given in US20080140138A1, “Inhibition of inflammatory cytokine production by stimulation of brain muscarinic receptors” (priority 2002, published 2008).

Key:
H1 histamine = H1 histamine (Homo sapiens, UniProt P35367); experiment: NovaScreen receptor binding panel; details: 10 μM; <50% = marginal or no activity
Protocol: (§1) Method of determining CNI-1493 receptor binding. CNI-1493 was tested at a single concentration (10 μM) in a panel of receptor binding assays by NovaScreen Biosciences Corporation (Hanover, Md.). Values were expressed as the percent inhibition of specific binding, and represented the average of duplicate tubes. Method of stereotactic intracerebroventricular injections. A rat model of intracerebroventricular (i.c.v.) injections was established in order to be able to directly deliver pharmacological agents into the brain of rats. This was necessary in order to separate drug effects on peripheral inflammation that occurred through central versus peripheral mechanisms. Lewis rats were anaesthetized with urethane (1 g/kg, i.p.) and xylazine (15 mg/rat, i.m. (intramuscular)). Rats were then placed in a stereotactic head frame (Stoelting, Wood Dale, Ill., USA). The incisor bar was adjusted until the plane defined by the lambda and bregma was parallel to the base plate. For i.c.v. injections the needle of a Hamilton syringe (25 μl) was positioned stereotactically above the lateral ventricle (0.2 mm and 1.5 mm posterior to bregma, 3.2 mm below the dura.) Solutions of the drugs tested were prepared in sterile endotoxin-free water, at the specified concentrations, and a 10-μl injection/rat was administered over 2 min, 1 h prior to either carrageenan injection, or to LPS.

NK1 neurokinin = NK1 neurokinin (Homo sapiens, UniProt P25103); experiment: NovaScreen receptor binding panel; details: 10 μM; <50% = marginal or no activity
Chain of NK1 neurokinin (P25103 whole entry): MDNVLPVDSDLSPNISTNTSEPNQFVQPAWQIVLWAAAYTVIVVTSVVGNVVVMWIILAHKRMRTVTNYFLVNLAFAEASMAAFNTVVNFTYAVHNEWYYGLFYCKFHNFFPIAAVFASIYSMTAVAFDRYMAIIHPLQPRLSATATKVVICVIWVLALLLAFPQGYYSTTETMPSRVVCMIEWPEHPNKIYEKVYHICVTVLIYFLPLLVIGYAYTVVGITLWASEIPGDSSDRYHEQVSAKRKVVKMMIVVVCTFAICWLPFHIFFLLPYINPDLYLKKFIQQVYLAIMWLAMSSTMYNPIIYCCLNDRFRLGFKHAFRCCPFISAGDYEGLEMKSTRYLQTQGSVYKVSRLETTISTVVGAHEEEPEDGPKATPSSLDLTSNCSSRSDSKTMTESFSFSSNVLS
Protocol: as §1

Type L calcium channel = experiment: NovaScreen receptor binding panel; details: 10 μM; <50% = marginal or no activity
Protocol: as §1

Type N calcium channel = Type N calcium channel (Homo sapiens, UniProt Q00975); experiment: NovaScreen receptor binding panel; details: 10 μM, average of duplicate tubes
Chain of Type N calcium channel (P54289 25-946): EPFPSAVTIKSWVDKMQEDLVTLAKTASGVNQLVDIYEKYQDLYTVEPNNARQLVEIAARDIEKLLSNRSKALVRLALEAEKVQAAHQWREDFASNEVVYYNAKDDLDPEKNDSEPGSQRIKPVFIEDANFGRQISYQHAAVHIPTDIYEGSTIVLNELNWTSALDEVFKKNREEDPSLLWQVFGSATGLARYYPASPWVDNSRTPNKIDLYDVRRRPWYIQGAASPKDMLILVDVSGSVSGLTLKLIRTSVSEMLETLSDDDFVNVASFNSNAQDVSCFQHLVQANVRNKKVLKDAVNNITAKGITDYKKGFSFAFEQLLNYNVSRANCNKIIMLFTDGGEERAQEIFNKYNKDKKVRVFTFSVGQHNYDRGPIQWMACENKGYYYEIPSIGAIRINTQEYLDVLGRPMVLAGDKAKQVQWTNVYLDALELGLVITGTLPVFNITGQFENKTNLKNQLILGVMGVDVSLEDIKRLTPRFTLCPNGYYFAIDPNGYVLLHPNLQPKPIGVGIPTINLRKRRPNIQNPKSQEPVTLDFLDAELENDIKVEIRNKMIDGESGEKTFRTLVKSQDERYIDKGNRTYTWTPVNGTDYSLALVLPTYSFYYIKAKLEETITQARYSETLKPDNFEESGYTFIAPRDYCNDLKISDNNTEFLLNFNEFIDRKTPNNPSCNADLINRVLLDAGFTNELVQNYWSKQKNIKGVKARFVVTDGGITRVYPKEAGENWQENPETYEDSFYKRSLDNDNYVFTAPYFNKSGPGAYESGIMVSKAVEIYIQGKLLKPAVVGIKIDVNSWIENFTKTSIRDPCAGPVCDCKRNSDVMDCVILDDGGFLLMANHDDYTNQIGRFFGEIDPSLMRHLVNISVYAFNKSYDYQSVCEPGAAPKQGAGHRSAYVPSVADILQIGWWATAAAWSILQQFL
Chain of Type N calcium channel (Q00975 whole entry): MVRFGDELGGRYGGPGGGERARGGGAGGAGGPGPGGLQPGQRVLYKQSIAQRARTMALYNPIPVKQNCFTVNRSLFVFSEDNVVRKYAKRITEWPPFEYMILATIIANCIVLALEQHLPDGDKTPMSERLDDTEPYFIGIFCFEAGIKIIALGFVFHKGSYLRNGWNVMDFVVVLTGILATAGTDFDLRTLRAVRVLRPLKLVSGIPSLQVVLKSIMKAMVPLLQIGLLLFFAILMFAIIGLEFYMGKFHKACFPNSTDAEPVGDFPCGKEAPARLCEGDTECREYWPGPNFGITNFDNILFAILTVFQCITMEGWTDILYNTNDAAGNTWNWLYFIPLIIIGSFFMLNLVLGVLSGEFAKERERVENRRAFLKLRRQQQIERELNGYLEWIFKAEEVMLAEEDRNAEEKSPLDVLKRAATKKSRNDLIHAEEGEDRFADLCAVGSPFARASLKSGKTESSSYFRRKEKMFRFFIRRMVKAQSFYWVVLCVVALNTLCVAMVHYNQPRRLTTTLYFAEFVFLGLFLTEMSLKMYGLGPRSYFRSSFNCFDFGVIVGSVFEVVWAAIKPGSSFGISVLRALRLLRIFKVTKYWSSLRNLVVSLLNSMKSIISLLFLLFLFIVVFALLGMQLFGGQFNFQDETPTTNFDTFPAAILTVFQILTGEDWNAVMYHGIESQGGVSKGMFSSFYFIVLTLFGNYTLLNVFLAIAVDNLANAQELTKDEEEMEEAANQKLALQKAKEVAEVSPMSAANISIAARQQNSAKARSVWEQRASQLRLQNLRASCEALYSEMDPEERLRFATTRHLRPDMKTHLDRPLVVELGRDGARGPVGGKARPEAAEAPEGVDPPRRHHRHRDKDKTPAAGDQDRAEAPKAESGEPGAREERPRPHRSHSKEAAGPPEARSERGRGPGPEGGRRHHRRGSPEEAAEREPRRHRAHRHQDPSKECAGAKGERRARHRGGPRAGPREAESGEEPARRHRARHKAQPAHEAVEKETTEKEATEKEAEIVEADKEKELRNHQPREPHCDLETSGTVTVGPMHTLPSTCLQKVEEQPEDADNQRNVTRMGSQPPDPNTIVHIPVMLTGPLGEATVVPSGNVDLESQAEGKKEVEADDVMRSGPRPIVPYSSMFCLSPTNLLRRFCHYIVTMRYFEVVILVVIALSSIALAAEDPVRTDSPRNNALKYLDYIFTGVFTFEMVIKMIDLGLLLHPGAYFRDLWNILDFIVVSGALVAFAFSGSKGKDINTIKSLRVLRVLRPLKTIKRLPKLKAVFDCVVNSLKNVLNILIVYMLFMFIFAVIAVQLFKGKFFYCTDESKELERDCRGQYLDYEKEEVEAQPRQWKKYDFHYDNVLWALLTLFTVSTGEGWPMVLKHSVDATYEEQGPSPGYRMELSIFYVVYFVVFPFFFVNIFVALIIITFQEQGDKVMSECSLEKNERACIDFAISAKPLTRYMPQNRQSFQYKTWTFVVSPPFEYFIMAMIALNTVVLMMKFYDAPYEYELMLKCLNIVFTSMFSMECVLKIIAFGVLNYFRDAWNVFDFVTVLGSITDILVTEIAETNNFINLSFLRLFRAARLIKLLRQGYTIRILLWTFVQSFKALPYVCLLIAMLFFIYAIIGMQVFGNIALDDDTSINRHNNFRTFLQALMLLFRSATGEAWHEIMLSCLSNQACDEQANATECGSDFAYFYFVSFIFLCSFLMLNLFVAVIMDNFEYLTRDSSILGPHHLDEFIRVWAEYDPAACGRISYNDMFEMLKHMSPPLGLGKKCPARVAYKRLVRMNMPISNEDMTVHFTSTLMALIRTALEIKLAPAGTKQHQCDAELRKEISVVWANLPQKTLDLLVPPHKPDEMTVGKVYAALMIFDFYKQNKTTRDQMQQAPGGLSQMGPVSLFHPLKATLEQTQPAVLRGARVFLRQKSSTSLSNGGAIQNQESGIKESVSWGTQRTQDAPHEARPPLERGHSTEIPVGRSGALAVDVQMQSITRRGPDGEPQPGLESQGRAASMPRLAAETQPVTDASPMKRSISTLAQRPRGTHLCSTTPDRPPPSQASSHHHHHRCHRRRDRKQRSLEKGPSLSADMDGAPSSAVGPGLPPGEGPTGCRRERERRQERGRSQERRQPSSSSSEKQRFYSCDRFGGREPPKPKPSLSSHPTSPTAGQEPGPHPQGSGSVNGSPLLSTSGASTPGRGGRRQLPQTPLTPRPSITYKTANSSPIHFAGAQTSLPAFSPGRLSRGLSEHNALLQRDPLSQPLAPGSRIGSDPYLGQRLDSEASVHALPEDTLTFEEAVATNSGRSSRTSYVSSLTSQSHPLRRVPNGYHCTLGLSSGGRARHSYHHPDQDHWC
Chain of Type N calcium channel (P54289 947-1103): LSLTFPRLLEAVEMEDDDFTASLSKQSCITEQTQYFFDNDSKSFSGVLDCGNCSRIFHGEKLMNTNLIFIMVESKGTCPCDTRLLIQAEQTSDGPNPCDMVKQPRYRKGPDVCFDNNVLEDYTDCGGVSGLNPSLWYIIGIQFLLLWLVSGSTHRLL
Chain of Type N calcium channel (P54284 whole entry, further chain): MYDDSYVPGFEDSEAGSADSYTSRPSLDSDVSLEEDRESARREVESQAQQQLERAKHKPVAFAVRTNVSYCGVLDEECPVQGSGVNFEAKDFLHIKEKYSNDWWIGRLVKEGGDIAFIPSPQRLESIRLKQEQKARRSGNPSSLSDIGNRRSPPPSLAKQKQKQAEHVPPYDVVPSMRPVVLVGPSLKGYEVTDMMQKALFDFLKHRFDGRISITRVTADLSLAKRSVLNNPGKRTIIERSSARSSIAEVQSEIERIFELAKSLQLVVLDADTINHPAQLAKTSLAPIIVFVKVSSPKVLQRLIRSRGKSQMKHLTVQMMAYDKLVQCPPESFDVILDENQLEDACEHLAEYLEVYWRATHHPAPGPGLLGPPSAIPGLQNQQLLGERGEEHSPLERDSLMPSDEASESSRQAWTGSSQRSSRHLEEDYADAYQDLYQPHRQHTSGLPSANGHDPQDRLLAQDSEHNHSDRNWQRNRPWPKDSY
Protocol: as §1

beta adrenergic = experiment: NovaScreen receptor binding panel; details: 10 μM; <50% = marginal or no activity
Protocol: as §1

chloride channel = experiment: NovaScreen receptor binding panel; details: 10 μM; <50% = marginal or no activity
Protocol: as §1

dopamine = experiment: NovaScreen receptor binding panel; details: 10 μM; <50% = marginal or no activity
Protocol: as §1

epidermal growth factor = epidermal growth factor (Homo sapiens, UniProt P00533); experiment: NovaScreen receptor binding panel; details: 10 μM; <50% = marginal or no activity
Protocol: as §1

[1] = test system: glutamate (NMDA agonist site); experiment: NovaScreen receptor binding panel; details: 10 μM; <50% = marginal or no activity
Protocol: as §1

leukotriene D4 and LTD4 = experiment: NovaScreen receptor binding panel; details: 10 μM; <50% = marginal or no activity
Protocol: as §1

muscarinic = experiment: NovaScreen receptor binding panel; details: 10 μM, average of duplicate tubes
Protocol: as §1

serotonin = experiment: NovaScreen receptor binding panel; details: 10 μM, average of duplicate tubes
Protocol: as §1

site 1 sodium = experiment: NovaScreen receptor binding panel; details: 10 μM; <50% = marginal or no activity
Protocol: as §1

site 2 sodium = experiment: NovaScreen receptor binding panel; details: 10 μM; <50% = marginal or no activity
Protocol: as §1

thromboxane A2 = thromboxane A2 (Homo sapiens, UniProt P21731); experiment: NovaScreen receptor binding panel; details: 10 μM; <50% = marginal or no activity
Protocol: as §1

[2] = test system: vasoactive intestinal peptide; experiment: NovaScreen receptor binding panel; details: 10 μM, average of duplicate tubes
Protocol: as §1

vasopressin 1 = vasopressin 1 (Homo sapiens, UniProt P37288); experiment: NovaScreen receptor binding panel; details: 10 μM; <50% = marginal or no activity
Protocol: as §1

[3] = test system: voltage-insensitive potassium channel; experiment: NovaScreen receptor binding panel; details: 10 μM, average of duplicate tubes
Protocol: as §1

[4] = test system: voltage-sensitive potassium channel; experiment: NovaScreen receptor binding panel; details: 10 μM, average of duplicate tubes
Protocol: as §1

LPS-induced TNF release = experiment: Conditioning (CNI-1493 with bell ringing), LPS-induced TNF release, L929 assay; assay type: in vivo, Mice; details: CNI-1493 2.5 mg/kg i.p. with bell ringing vs. saline with bell ringing (Group 2 vs. Group 4; p=0.22); LPS 5 mg/kg i.p.
Protocol: Mice were grouped into four groups (n=4 animals/group). The conditioning training for Groups 2-4 consisted of morning and afternoon sessions. Mice in group 2 were together taken to a room, where each mouse was injected with CNI-1493 (2.5 mg/kg, i.p.). Simultaneously with the injection, each mouse was subjected to 45 seconds of bell ringing. Group 4 mice, similar to Group 2 mice, were subjected to control conditioning, whereby mice were injected with saline, instead of CNI-1493. Group 3 mice, like Group 2 mice, were subjected to saline injections but not bell ringing. This protocol was performed over a 10 day period, on days 1-4 and 8-10. On day 11, Group 1 mice were injected with CNI-1493 (2.5 mg/kg, i.p.). Also on day 11, 30 min after the Group 1 mice injections were performed, animals in all groups were injected with LPS (5 mg/kg, i.p.). After 2 hours, the mice were euthanized via CO2 inhalation, and blood was withdrawn. Serum TNF was determined by the L929 assay.

Chain of H1 histamine (P35367 whole entry): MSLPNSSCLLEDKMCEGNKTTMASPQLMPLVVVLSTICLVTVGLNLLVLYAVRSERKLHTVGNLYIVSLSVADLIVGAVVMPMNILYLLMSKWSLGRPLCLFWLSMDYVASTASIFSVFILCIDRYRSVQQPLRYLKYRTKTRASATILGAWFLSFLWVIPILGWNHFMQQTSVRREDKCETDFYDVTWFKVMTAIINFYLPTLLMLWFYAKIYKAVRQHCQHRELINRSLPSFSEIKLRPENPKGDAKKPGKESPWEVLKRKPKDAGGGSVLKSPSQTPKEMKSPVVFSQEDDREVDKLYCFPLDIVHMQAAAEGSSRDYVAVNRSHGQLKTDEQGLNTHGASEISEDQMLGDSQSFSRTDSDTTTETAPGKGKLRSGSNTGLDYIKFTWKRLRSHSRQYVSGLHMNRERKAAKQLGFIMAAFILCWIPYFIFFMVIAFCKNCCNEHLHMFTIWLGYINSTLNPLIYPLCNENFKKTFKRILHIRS

## CC(=NNC(=N)N)c1cc(NC(=O)CCCCCCCCC(=O)Nc2cc(C(C)=NNC(=N)N)cc(C(C)=NNC(=N)N)c2)cc(C(C)=NNC(=N)N)c1.Cl.Cl.Cl.Cl [CNI-1493, N,N′-bis(3,5-diacetylphenyl) decanediamide tetrakis (amidinohydrazone) tetrahydrochloride]
H1 histamine
  percent inhibition of receptor binding: less than 50%
NK1 neurokinin
  percent inhibition of receptor binding: less than 50%
Type L calcium channel
  percent inhibition of receptor binding: less than 50%
Type N calcium channel
  percent inhibition of specific binding: 84.2%
Beta adrenergic
  percent inhibition of receptor binding: less than 50%
Chloride channel
  percent inhibition of receptor binding: less than 50%
dopamine
  percent inhibition of receptor binding: less than 50%
Epidermal growth factor
  percent inhibition of receptor binding: less than 50%
[1]
  percent inhibition of receptor binding: less than 50%
Leukotriene D4 and LTD4
  percent inhibition of receptor binding: less than 50%
muscarinic
  percent inhibition of specific binding: 60.6%
serotonin
  percent inhibition of specific binding: 75.6%
Site 1 sodium
  percent inhibition of receptor binding: less than 50%
Site 2 sodium
  percent inhibition of receptor binding: less than 50%
Thromboxane A2
  percent inhibition of receptor binding: less than 50%
[2]
  percent inhibition of specific binding: 58.5%
Vasopressin 1
  percent inhibition of receptor binding: less than 50%
[3]
  percent inhibition of specific binding: 60.2%
[4]
  percent inhibition of specific binding: 73.0%
LPS-induced TNF release
  reduction of mean LPS-induced TNF release by conditioning: about 60%
